Experimental data: patent publication US6054435A, “6-O-substituted macrolides having antibacterial activity” (priority 1999, dated 2000)
≈ marks a conversion by molar mass, not a printed value.

Assays:
Assay in all cases: in vitro antibacterial activity (MIC), agar dilution
Type in all cases: cell-based
[1] = tested on: Staphylococcus aureus A-5278; details: organism code CC; BHI agar, 35-37° C., 20 to 24 hours; unit assumed
Outline: (§1)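 Steps: dilute compound serially into BHI agar (twelve plates); spot inocula diluted 1:100, or 1:10 for slow-growing Streptococcus; incubate; inspect visually. MIC recorded as lowest level with no growth, slight haze or sparse isolated colonies.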

[2] = tested on: Streptococcus pyogenes EES61; details: organism code LL; BHI agar, 35-37° C., 20 to 24 hours; unit assumed
Outline: as §1

[3] = tested on: Streptococcus Pneumonia GYR 1171; details: organism code YY; BHI agar, 35-37° C., 20 to 24 hours; unit assumed
Outline: as §1

[4] = tested on: Candida albicans CCH 442; details: organism code TT; BHI agar, 35-37° C., 20 to 24 hours; unit assumed
Outline: as §1

[5] = tested on: Staphylococcus aureus ATCC 6538P; details: organism code AA; BHI agar, 35-37° C., 20 to 24 hours; unit assumed
Outline: as §1

[6] = tested on: Staphylococcus aureus A5177; details: organism code BB; BHI agar, 35-37° C., 20 to 24 hours; unit assumed
Outline: as §1

[7] = tested on: Nocardia Asteroides ATCC9970; details: organism code VV; BHI agar, 35-37° C., 20 to 24 hours; unit assumed
Outline: as §1

[8] = tested on: Streptococcus Pneumonia 5649; details: organism code ZZA; BHI agar, 35-37° C., 20 to 24 hours; unit assumed
Outline: as §1

[9] = tested on: Streptococcus bovis A-5169; details: organism code JJ; BHI agar, 35-37° C., 20 to 24 hours; unit assumed
Outline: as §1

[10] = tested on: Escherichia coli DC-2; details: organism code SS; BHI agar, 35-37° C., 20 to 24 hours; unit assumed
Outline: as §1

[11] = tested on: Micrococcus luteus ATCC 4698; details: organism code PP; BHI agar, 35-37° C., 20 to 24 hours; unit assumed
Outline: (§2)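 BHI agar incorporation method; twelve compound concentrations. Streptococcus and other slow growers inoculated at 1:10, other strains at 1:100. Visual MIC read-out versus growth control.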

[12] = tested on: Staphylococcus aureus CMX 553; details: organism code FF; BHI agar, 35-37° C., 20 to 24 hours; unit assumed
Outline: as §1

[13] = tested on: Streptococcus pyogenes PIU 2548; details: organism code NN; BHI agar, 35-37° C., 20 to 24 hours; unit assumed
Outline: as §1

[14] = tested on: Staphylococcus aureus 1775; details: organism code GG; BHI agar, 35-37° C., 20 to 24 hours; unit assumed
Outline: as §1

[15] = tested on: Streptococcus agalactiae CMX 508; details: organism code KK; BHI agar, 35-37° C., 20 to 24 hours; unit assumed
Outline: as §1

[16] = tested on: Streptococcus Pneumonia 5979; details: organism code ZZ; BHI agar, 35-37° C., 20 to 24 hours; unit assumed
Outline: as §1

[17] = tested on: Escherichia coli JUHL; details: organism code QQ; BHI agar, 35-37° C., 20 to 24 hours; unit assumed
Outline: as §1

[18] = tested on: Staphylococcus aureus NCTC10649M; details: organism code EE; BHI agar, 35-37° C., 20 to 24 hours; unit assumed
Outline: as §1

[19] = tested on: Enterococcus faecium ATCC 8043; details: organism code II; BHI agar, 35-37° C., 20 to 24 hours; unit assumed
Outline: as §1

[20] = tested on: Escherichia coli SS; details: organism code RR; BHI agar, 35-37° C., 20 to 24 hours; unit assumed
Outline: as §1

[21] = tested on: Haemophilis Influenzae DILL AMP R; details: organism code WW; BHI agar, 35-37° C., 20 to 24 hours; unit assumed
Outline: as §1

[22] = tested on: Micrococcus luteus ATCC 9341; details: organism code OO; BHI agar, 35-37° C., 20 to 24 hours; unit assumed
Outline: as §2

[23] = tested on: Mycobacterium smegmatis ATCC 114; details: organism code UU; BHI agar, 35-37° C., 20 to 24 hours; unit assumed
Outline: as §1

[24] = tested on: Streptococcus Pneumonia ATCC6303; details: organism code XX; BHI agar, 35-37° C., 20 to 24 hours; unit assumed
Outline: as §1

[25] = tested on: Staphylococcus aureus CMX 642A; details: organism code DD; BHI agar, 35-37° C., 20 to 24 hours; unit assumed
Outline: as §1

[26] = tested on: Streptococcus pyogenes 930; details: organism code MM; BHI agar, 35-37° C., 20 to 24 hours; unit assumed
Outline: as §1

[27] = tested on: Staphylococcus epidermidis 3519; details: organism code HH; BHI agar, 35-37° C., 20 to 24 hours; unit assumed
Outline: as §1

| SMILES | MIC [1] | MIC [2] | MIC [3] | MIC [4] | MIC [5] | MIC [6] | MIC [7] | MIC [8] | MIC [9] | MIC [10] | MIC [11] | MIC [12] | MIC [13] | MIC [14] | MIC [15] | MIC [16] | MIC [17] | MIC [18] | MIC [19] | MIC [20] | also measured |
| --- | --- | --- | --- | --- | --- | --- | --- | --- | --- | --- | --- | --- | --- | --- | --- | --- | --- | --- | --- | --- | --- |
| CC[C@H]1OC(=O)[C@H](C)C(=O)[C@H](C)[C@@H](O[C@@H]2O[C@H](C)C[C@H](N(C)C)[C@H]2O)[C@](C)(OCC#Cc2ccc(-c3ccccc3)s2)C[C@@H](C)C(=O)[C@H](C)[C@H]2NC(=O)O[C@@]21C [Example 13] | > 100 µg/mL | 0.02 µg/mL (≈ 0.0252 µM) | 0.25 µg/mL (≈ 0.314 µM) | > 100 µg/mL | 0.39 µg/mL (≈ 0.491 µM) | 0.39 µg/mL (≈ 0.491 µM) | 0.78 µg/mL (≈ 0.981 µM) | 2 µg/mL (≈ 2.52 µM) | 0.05 µg/mL (≈ 0.0629 µM) | > 100 µg/mL | 0.2 µg/mL (≈ 0.252 µM) | 0.39 µg/mL (≈ 0.491 µM) | 0.39 µg/mL (≈ 0.491 µM) | > 100 µg/mL | 0.1 µg/mL (≈ 0.126 µM) | 4 µg/mL (≈ 5.03 µM) | > 100 µg/mL | 0.78 µg/mL (≈ 0.981 µM) | 0.05 µg/mL (≈ 0.0629 µM) | 3.1 µg/mL (≈ 3.9 µM) | MIC [21]: 32 µg/mL (≈ 40.3 µM); MIC [22]: 0.05 µg/mL (≈ 0.0629 µM); MIC [23]: 1.56 µg/mL (≈ 1.96 µM); MIC [24]: 0.25 µg/mL (≈ 0.314 µM); MIC [25]: 0.39 µg/mL (≈ 0.491 µM); MIC [26]: 100 µg/mL (≈ 126 µM); MIC [27]: 0.78 µg/mL (≈ 0.981 µM) |
| CC[C@H]1OC(=O)[C@H](C)C(=O)[C@H](C)[C@@H](O[C@@H]2O[C@H](C)C[C@H](N(C)C)[C@H]2O)[C@](C)(OCC#Cc2ccc(-c3cccc(C)c3)s2)C[C@@H](C)C(=O)[C@H](C)[C@H]2NC(=O)O[C@@]21C [Example 18] | 25 µg/mL (≈ 30.9 µM) | 0.02 µg/mL (≈ 0.0247 µM) | 0.03 µg/mL (≈ 0.0371 µM) | > 100 µg/mL | 0.1 µg/mL (≈ 0.124 µM) | 0.1 µg/mL (≈ 0.124 µM) | 0.1 µg/mL (≈ 0.124 µM) | 0.5 µg/mL (≈ 0.618 µM) | 0.01 µg/mL (≈ 0.0124 µM) | > 100 µg/mL | 0.2 µg/mL (≈ 0.247 µM) | 0.1 µg/mL (≈ 0.124 µM) | 0.2 µg/mL (≈ 0.247 µM) | 12.5 µg/mL (≈ 15.5 µM) | 0.02 µg/mL (≈ 0.0247 µM) | 2 µg/mL (≈ 2.47 µM) | > 100 µg/mL | 0.2 µg/mL (≈ 0.247 µM) | 0.1 µg/mL (≈ 0.124 µM) | 0.78 µg/mL (≈ 0.964 µM) | MIC [21]: 2 µg/mL (≈ 2.47 µM); MIC [22]: 0.02 µg/mL (≈ 0.0247 µM); MIC [23]: 0.1 µg/mL (≈ 0.124 µM); MIC [24]: 0.06 µg/mL (≈ 0.0742 µM); MIC [25]: 0.1 µg/mL (≈ 0.124 µM); MIC [26]: 1.56 µg/mL (≈ 1.93 µM); MIC [27]: 0.2 µg/mL (≈ 0.247 µM) |
| CC[C@H]1OC(=O)[C@H](C)C(=O)[C@H](C)[C@@H](O[C@@H]2O[C@H](C)C[C@H](N(C)C)[C@H]2O)[C@](C)(OCC#Cc2ccc(-c3cccc(C(F)(F)F)c3)s2)C[C@@H](C)C(=O)[C@H](C)[C@H]2NC(=O)O[C@@]21C [Example 19] | 25 µg/mL (≈ 29 µM) | 0.1 µg/mL (≈ 0.116 µM) | 0.125 µg/mL (≈ 0.145 µM) | > 100 µg/mL | 0.39 µg/mL (≈ 0.452 µM) | 0.39 µg/mL (≈ 0.452 µM) | 0.39 µg/mL (≈ 0.452 µM) | 1 µg/mL (≈ 1.16 µM) | 0.05 µg/mL (≈ 0.0579 µM) | > 100 µg/mL | 0.39 µg/mL (≈ 0.452 µM) | 0.39 µg/mL (≈ 0.452 µM) | 0.39 µg/mL (≈ 0.452 µM) | 12.5 µg/mL (≈ 14.5 µM) | 0.05 µg/mL (≈ 0.0579 µM) | 4 µg/mL (≈ 4.63 µM) | > 100 µg/mL | 0.39 µg/mL (≈ 0.452 µM) | 0.39 µg/mL (≈ 0.452 µM) | 3.1 µg/mL (≈ 3.59 µM) | MIC [21]: 4 µg/mL (≈ 4.63 µM); MIC [22]: 0.2 µg/mL (≈ 0.232 µM); MIC [23]: 0.39 µg/mL (≈ 0.452 µM); MIC [24]: 0.125 µg/mL (≈ 0.145 µM); MIC [25]: 0.39 µg/mL (≈ 0.452 µM); MIC [26]: 3.1 µg/mL (≈ 3.59 µM); MIC [27]: 0.39 µg/mL (≈ 0.452 µM) |
| CC[C@H]1OC(=O)[C@H](C)C(=O)[C@H](C)[C@@H](O[C@@H]2O[C@H](C)C[C@H](N(C)C)[C@H]2O)[C@](C)(OCC#Cc2ccc(-c3cccc(NC(C)=O)c3)s2)C[C@@H](C)C(=O)[C@H](C)[C@H]2NC(=O)O[C@@]21C [Example 20] | > 100 µg/mL | 0.02 µg/mL (≈ 0.0235 µM) | 0.015 µg/mL (≈ 0.0176 µM) | > 100 µg/mL | 0.1 µg/mL (≈ 0.117 µM) | 0.05 µg/mL (≈ 0.0587 µM) | 0.1 µg/mL (≈ 0.117 µM) | 0.25 µg/mL (≈ 0.293 µM) | ≤ 0.005 µg/mL | 100 µg/mL (≈ 117 µM) | 0.1 µg/mL (≈ 0.117 µM) | 0.1 µg/mL (≈ 0.117 µM) | 0.2 µg/mL (≈ 0.235 µM) | > 100 µg/mL | ≤ 0.005 µg/mL | 0.5 µg/mL (≈ 0.587 µM) | > 100 µg/mL | 0.1 µg/mL (≈ 0.117 µM) | 0.05 µg/mL (≈ 0.0587 µM) | 0.2 µg/mL (≈ 0.235 µM) | MIC [21]: 4 µg/mL (≈ 4.69 µM); MIC [22]: 0.02 µg/mL (≈ 0.0235 µM); MIC [23]: 1.56 µg/mL (≈ 1.83 µM); MIC [24]: 0.15 µg/mL (≈ 0.176 µM); MIC [25]: 0.1 µg/mL (≈ 0.117 µM); MIC [26]: 6.2 µg/mL (≈ 7.28 µM); MIC [27]: 0.1 µg/mL (≈ 0.117 µM) |
